Measured values published in patent US20180228858A1, “A PLANT EXTRACT AND COMPOUNDS FOR USE IN WOUND HEALING” (priority 2014, published 2018).

Assays:
human CYP11B1 = molecular target: T1, human CYP11B1 (Homo sapiens, UniProt P15538); assay: CYP11B1 assay in V79MZh11B1 cells expressing recombinant human CYP11B1; assay type: cell-based; conditions: mean ± SD of 2 independent experiments; for inhibition at 1 µM: V79MZh11B1, 1 μM; for inhibition at 10 µM: V79MZh11B1, 10 μM; for inhibition at 100 µM: V79MZh11B1, 100 μM; for % CYP11B1 Inhibition: 10 μM
T1 construct: expressed in transfected cells; host or cells: V79MZh11B1 cell line (V79 hamster fibroblasts by own knowledge)
T1 sequence (P15538 25-503): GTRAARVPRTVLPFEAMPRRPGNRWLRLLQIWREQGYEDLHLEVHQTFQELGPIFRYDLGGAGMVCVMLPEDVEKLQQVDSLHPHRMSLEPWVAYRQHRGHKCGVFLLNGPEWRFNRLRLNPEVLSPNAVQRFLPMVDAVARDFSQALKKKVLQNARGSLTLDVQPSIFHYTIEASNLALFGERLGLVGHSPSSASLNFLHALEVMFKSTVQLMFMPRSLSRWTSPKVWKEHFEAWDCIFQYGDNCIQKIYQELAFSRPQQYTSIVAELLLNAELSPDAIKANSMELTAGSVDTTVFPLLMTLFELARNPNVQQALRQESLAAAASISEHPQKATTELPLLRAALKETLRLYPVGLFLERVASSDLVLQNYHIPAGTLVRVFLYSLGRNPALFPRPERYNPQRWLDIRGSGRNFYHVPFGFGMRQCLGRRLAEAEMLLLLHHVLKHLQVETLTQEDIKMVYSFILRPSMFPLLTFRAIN
Experimental: Applicant dissolved ˜10 mg of the Salvia m. Bunge extract (as disclosed in WO2009050451) in the required volume of 100% ethanol or 100% DMSO to obtain a 1% (w/v) extract solution. They tested 5 μL of this solution in a 500 μL assay incubation volume (final ethanol or DMSO conc. of 1%). From this 1% Salvia m. Bunge extract solution, they also prepared a 1:10 and 1:100 dilution in 100% ethanol or 100% DMSO. From these solutions, they tested 5 μL in a 500 μL assay incubation volume.
The V79MZh11B1 cell line, expressing recombinant human CYP11B1, was cultured in Dulbecco's modified Eagle (DME, Sigma) medium supplemented with 5% fetal calf serum (FCS; Sigma), penicillin G (100 U/ml), streptomycin (100 μg/ml), glutamine (2 mM) and sodium pyruvate (1 mM) at 37° C. in 5% CO2 in air. Cells were placed on 24-well cell culture plates (8×10^5 cells per well) and cultured in 1 ml DME medium per well until confluence. On the day of testing, DME medium was removed and 450 μl of fresh DMEM, containing 5 μl of the extract solution in 100% ethanol or 100% DMSO, was added to each well. There was no significant difference in CYP11B1 inhibition between DMSO or ethanol as solvent. Control wells (receiving vehicle or ketoconazole (final concentration of 50 nM) as reference compound to validate each experiment) were treated in the same way without extract solution. After 60 min at 37° C. in the CO2 incubator, the reaction was started by the addition of 50 μl of DMEM containing 100 nM of 11-deoxycorticosterone (plus 0.15 μCi of [1,2-^3H] 11-deoxycorticosterone) as substrate. All measurements were in duplicate. After 25 min, the enzyme reaction was stopped by extracting the supernatant with ethyl acetate. Samples were centrifuged (10,000×g, 10 min), and the upper phase was pipetted into fresh cups. The ethylacetate solvent was evaporated and the residue was dissolved in 40 μl of methanol and analyzed by HPLC. The following formulas were used to determine the level of conversion and percentage of enzyme inhibition.
Given the activity of the extract the Applicant looked at the activity of some of the tanshinones using the methodology described in Example 1.

V79MZh11B1 cells = assay: MTT cellular viability assay; assay type: cell-based
Experimental: In order to check that the inhibition was not due to toxicity, a MTT [3-(4,5-dimethylthiazol-2-yl)-2,5-diphenyl-tetrazolium bromide] cellular viability assay was performed in the same cell line under the incubation conditions used in the CYP11B1 screening assay as set out in Example 2 below:
V79MZh11B1 cells were cultured on 24-well cell culture plates (8×10^5 cells per well) in 1 ml DME medium until confluence. On the day of testing, DME medium was removed and 450 μl of fresh DME medium with 5% FCS, containing 5 μl of the Salvia m. Bunge extract solution in 100% ethanol, was added to each well. Ethanol (1%) and Triton® X-100 (0.0006%) were used as vehicle and positive control (all final concentrations), respectively. All measurements were in quadruplicate. After 60 min at 37° C. in a 5% CO2, 50 μl of fresh DME medium (+5% FCS) was added to each well. After 25 min, medium was replaced by 500 μl fresh DME medium (+5% FCS) to which 25 μl of MTT solution (5 mg per ml PBS, pH 7.2) was added immediately. After 30 min, all medium was removed and the cells were lysed in 250 μl of 0.5% acetic acid (v/v), 10% SDS (w/v) in DMSO. Absorbance of formazan was measured spectrophotometrically at 570 nm wavelength

C[C@H]1COC2=C1C(=O)C(=O)c1c2ccc2c1CCCC2(C)C [Cryptotanshinone]
inhibition at 1 µM (human CYP11B1): 6.4 ± 1.6%
inhibition at 10 µM (human CYP11B1): 15.4 ± 10.3%
inhibition at 100 µM (human CYP11B1): 59.9 ± 22%

Cc1cccc2c3c(ccc12)C1=C(C(=O)C3=O)[C@@H](C)CO1 [Dihydrotanshinone, 15,16-dihydrotanshinone I]
% CYP11B1 Inhibition (human CYP11B1): 93.6 ± 9.1%
inhibition at 1 µM (human CYP11B1): 43.3 ± 14.7%
inhibition at 10 µM (human CYP11B1): 94%
inhibition at 100 µM (human CYP11B1): 100%

Cc1coc2c1C(=O)C(=O)c1c-2ccc2c1CCCC2(C)C [Tanshinone IIA]
inhibition at 1 µM (human CYP11B1): 5.9 ± 0.2%
inhibition at 10 µM (human CYP11B1): 16.1 ± 13.5%
inhibition at 100 µM (human CYP11B1): 29.4 ± 0.4%

Cc1coc2c1C(=O)C(=O)c1c-2ccc2c(C)cccc12 [Tanshinone I]
% CYP11B1 Inhibition (human CYP11B1): 63.7 ± 4.5%
inhibition at 1 µM (human CYP11B1): 19.1 ± 7.9%
inhibition at 10 µM (human CYP11B1): 64%
inhibition at 100 µM (human CYP11B1): 81.1 ± 6.9%

Triton X-100
Cell viability (MTT conversion into formazan, 1% ethanol = 100%) (V79MZh11B1 cells; Experiment 1, final conc. 0.0006%): 3 ± 1%
Cell viability (MTT conversion into formazan, 1% ethanol = 100%) (V79MZh11B1 cells; Experiment 2, final conc. 0.0006%): 3 ± 1%
effect on formazan formation (V79MZh11B1 cells; positive control, 0.0006%): almost fully block formazan formation
